Source: patent US11286268B1, “EIF4E-inhibiting compounds and methods” (EFFECTOR THERAPEUTICS, INC., priority 2019, dated 2022)
Where two headings read alike, the source gives them in different places.

Target: recombinant eIF4E (Homo sapiens (Human), UniProt P06730)
Assay: Fluorescence polarization competition assay for eIF4E binding potency
Procedure, shortened: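 Competitive displacement format: compounds compete with a fluorescent m7GDP tracer (20 nM) for 75 nM recombinant eIF4E. Incubation is 30 min at room temperature, protected from light, with 1% DMSO. Polarization read gives IC50 over eight 3-fold concentrations.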

[1] = fluorescence polarization competition, 75 nM recombinant eIF4E, 20 nM EDA-m7GDP-ATTO-550, IC50 class, read-out: elF4E FP
[2] = inhibition of eIF4E/EDA-m7GDP-ATTO-550 binding by 50%, Table 4B calculated values, read-out: IC50
[3] = inhibition of eIF4E/EDA-m7GDP-ATTO-550 binding, calculated IC50 values, Table 4B, read-out: IC50

recombinant eIF4E, sequence (P06730 whole entry): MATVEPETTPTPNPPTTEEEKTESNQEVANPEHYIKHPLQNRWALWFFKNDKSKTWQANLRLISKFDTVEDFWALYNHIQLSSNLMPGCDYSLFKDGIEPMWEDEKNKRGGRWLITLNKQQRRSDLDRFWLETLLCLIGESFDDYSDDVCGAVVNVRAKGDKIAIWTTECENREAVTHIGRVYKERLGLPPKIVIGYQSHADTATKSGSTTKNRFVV

SMILES | IC50 [1] [nM] | IC50 [2] [nM] | IC50 [3] [nM]
Cc1cc(-c2cc(Cl)ccc2OCCn2c(C)nc3cnc(C(F)F)c(C#N)c3c2=O)c2scc(C(=O)O)c2n1 [compound 914] | < 50 | 20.7 | –
CCN(c1ncc2nc(C)n(CC#Cc3ccc(Cl)cc3-c3ccnc4c(C(=O)NS(C)(=O)=O)csc34)c(=O)c2c1C#N)C1CCN(C2CC(F)(F)C2)CC1 [compound 1601] | – | – | 8.05
Cc1nc2cnc(N(C)C3CCN(C4COC4)CC3)c(C#N)c2c(=O)n1CCOc1ccc(Cl)cc1-c1ccnc2c(C(=O)O)csc12 [compound 1320] | – | – | 27.7
Cc1cc(-c2cc(Cl)ccc2OCCn2c(C)nc3c(C)nc(-c4c(C)cccc4F)c(C#N)c3c2=O)c2scc(C(=O)O)c2n1 [compound 871] | < 50 | – | –
COC(=O)c1csc2c(-c3cc(Cl)ccc3C#CCn3c(C)nc4cnc(N5CCN(CCOC(F)(F)F)CC5)c(C#N)c4c3=O)ccnc12 [compound 1104] | 50 to 1000 | 631 | –
COc1ncc(C#N)c2c(=O)n(CCOc3ccc(Cl)cc3-c3ccc(C)c4c(C(=O)O)csc34)c(C)nc12 [compound 726] | 50 to 1000 | 53 | –
Cc1cc(-c2cc(Cl)ccc2OCCn2c(C)nc3cc(C(F)(F)F)c(-c4ccncc4)nc3c2=O)c2scc(C(=O)O)c2n1 [compound 464] | < 50 | 21.4 | –
Cc1nc2cnc(N(C)C3CCN(C4CC(F)(F)C4)CC3)c(C#N)c2c(=O)n1CC#Cc1ccc(Cl)cc1-c1ccnc2c(C(=O)NS(=O)(=O)C(C)(C)C)csc12 [compound 1812] | – | – | 18.4
Cc1sc2c(-c3cc(Cl)ccc3OCCn3c(C)nc4c(F)cc(C(F)F)c(C#N)c4c3=O)ccnc2c1C(=O)O [compound 123] | < 50 | 36.5 | –
Cc1nc2cnc(CCN(C)CC(F)F)c(C#N)c2c(=O)n1CC#Cc1ccc(Cl)cc1-c1ccnc2c(C(=O)O)csc12 [compound 1492] | – | – | 20.1
CCN(c1ncc2nc(C)n(CC#Cc3ccc(Cl)cc3-c3ccnc4c(C(=O)NS(C)(=O)=O)csc34)c(=O)c2c1C#N)C1CCN([C@H]2C[C@H](OC(F)F)C2)CC1 [compound 1767] | – | – | 17.4
Cc1nc2cc(S(=O)(=O)N(C)C)c(F)c(C#N)c2c(=O)n1CCOc1ccc(Cl)cc1-c1ccnc2c(C(=O)O)csc12 [compound 280] | < 50 | 41.2 | –
O=C(O)c1cccc(-c2cc(Cl)ccc2OCCn2c(C(F)F)nc3cccc(Br)c3c2=O)c1 [compound 2009] | – | – | 2150
N#Cc1ccc(F)c2nc(C(F)F)n(CCOc3ccc(Cl)cc3-c3ccnc4c(C(=O)O)csc34)c(=O)c12 [compound 1941] | – | – | 61.6
Cc1nc2cc(C(F)(F)F)c(N3CCN(C)CC3)c(C#N)c2c(=O)n1CC#Cc1ccc(Cl)cc1-c1cccc(C(=O)O)c1 [compound 1154] | < 50 | 14 | –
Cc1c(C(F)(F)F)cc(C#N)c2c(=O)n(CCOc3ccc(Cl)cc3-c3ccnc4c(C(=O)O)csc34)c(C)nc12 [compound 416] | < 50 | 23 | –
Cc1nc2cnc(N3C[C@H]4CN(CC(F)F)C[C@H]4C3)c(C#N)c2c(=O)n1CCOc1ccc(Cl)cc1-c1ccnc2c(C(=O)O)csc12 [compound 1478] | – | – | 13
Cc1cc(-c2cc(Cl)ccc2OCCn2c(C)nc3cc(Cl)c(-c4cc(F)cnc4C)c(C#N)c3c2=O)c2scc(C(=O)O)c2n1 [compound 392] | < 50 | 25.1 | –
Cc1nc2cnc(C3CN(C)CCO3)c(C#N)c2c(=O)n1CCOc1ccc(Cl)cc1-c1ccnc2c(C(=O)O)csc12 (centres unmarked) [compound 1330] | – | – | 13
Cc1nc2cc(F)c(F)c(C#N)c2c(=O)n1CCOc1ccc(Cl)cc1-c1ccnc2c(C(=O)O)csc12 [compound 1947] | – | – | 29.7
Cc1cc(-c2cc(Cl)ccc2OCCn2c(C)nc3cc(C(F)(F)F)c(N4CCN(C)CC4=O)c(C#N)c3c2=O)c2scc(C(=O)O)c2n1 [compound 1075] | < 50 | 6.64 | –
CCc1ncccc1-c1c(C(F)(F)F)cc2nc(C)n(CCOc3ccc(Cl)cc3-c3cc(C)nc4c(C(=O)O)csc34)c(=O)c2c1C#N [compound 466] | < 50 | 9.3 | –
Cc1nc2cnc(N3CCN(CCCC(F)(F)F)CC3)c(C#N)c2c(=O)n1CCOc1ccc(Cl)cc1-c1ccnc2c(C(=O)O)csc12 [compound 844] | < 50 | 23.3 | –
Cc1nc2cnc(N3CCN(C4C(C)(C)C4(C)C)CC3)c(C#N)c2c(=O)n1CCOc1ccc(Cl)cc1-c1ccnc2c(C(=O)O)csc12 [compound 1473] | – | – | 16.9
Cc1cc(-c2cc(Cl)ccc2OCCn2c(C)nc3cc(Cl)c(N)c(C#N)c3c2=O)c2scc(C(=O)O)c2n1 [compound 692] | < 50 | 5.97 | –
Cc1nc2cnc(N(C)C3CCN(CC(C)(F)F)CC3)c(C#N)c2c(=O)n1CC#Cc1ccc(Cl)cc1-c1ccnc2c(C(=O)NS(=O)(=O)C3COC3)csc12 [compound 1183] | < 50 | 23.2 | –
CNc1ncc2nc(C)n(CCOc3ccc(Cl)cc3-c3cc(C)nc4c(C(=O)O)csc34)c(=O)c2c1C#N [compound 985] | < 50 | 6.69 | –

SMILES | IC50 [1] [nM] | IC50 [2] [nM] | IC50 [3] [nM]
C=Cc1c(C(=O)O)cccc1-c1cc(Cl)ccc1OCCn1c(C)nc2cc(C(F)(F)F)cc(C#N)c2c1=O [compound 169] | 50 to 1000 | 234 | –
Cc1nc2cnc(N(C)C3CCN(CC(F)(F)F)CC3)c(C#N)c2c(=O)n1CC#Cc1ccc(Cl)cc1-c1ccnc2c(C(=O)NS(=O)(=O)C3CC3)csc12 [compound 1547] | – | – | 15.2
Cc1nc2cc(C(F)(F)F)c(N3CCN(C)CC3)c(C#N)c2c(=O)n1CCSc1ccc(Cl)cc1-c1ccnc2c(C(=O)O)csc12 [compound 1269] | – | – | 66.6
Cc1nc2cc(C(F)(F)F)c(N3CCN(C)CC3)c(C#N)c2c(=O)n1CCOc1ccc(Cl)cc1-c1cc(C(=O)O)nc(N(C)C)c1 [compound 1225] | < 50 | – | 3.12
Cc1nc2cc(CN(C)CCF)c(OC(F)F)c(C#N)c2c(=O)n1CCOc1ccc(Cl)cc1-c1ccnc2c(C(=O)O)csc12 [compound 1278] | – | – | 10.6
Cc1cc(-c2cc(Cl)ccc2OCCn2c(C)nc3cnc(NCC(F)F)c(C#N)c3c2=O)c2scc(C(=O)O)c2n1 [compound 974] | < 50 | 23.6 | –
Cc1cc(-c2cc(Cl)ccc2OCCn2c(C)nc3cc(C(F)(F)F)c(C4=CCOCC4)c(C#N)c3c2=O)c2scc(C(=O)O)c2n1 [compound 429] | < 50 | – | –
Cc1ccc(-c2c(C(F)(F)F)cc3nc(C)n(CCOc4ccc(Cl)cc4-c4cc(C)nc5c(C(=O)O)csc45)c(=O)c3c2C#N)c(C)n1 [compound 349] | < 50 | 5.84 | –
Cc1nc2cnc(C3=CCC(F)(F)CC3)c(C#N)c2c(=O)n1CC#Cc1ccc(Cl)cc1-c1ccnc2c(C(=O)O)csc12 [compound 1482] | – | – | 16.6
Cc1ncc(C#N)c2c(=O)n(CCOc3ccc(Cl)cc3-c3ccc(C)c4c(C(=O)O)csc34)c(C)nc12 [compound 722] | < 50 | 38 | –
Cc1nc2cc(C(F)(F)F)cc(C#N)c2c(=O)n1CCOc1cc(F)c(C#N)cc1-c1ccnc2c(C(=O)O)csc12 [compound 289] | < 50 | 19.1 | –
Cc1cc(F)c(-c2c(C(F)(F)F)cc3nc(C)n(CCOc4ccc(Cl)cc4-c4cc(C)nc5c(C(=O)O)csc45)c(=O)c3c2C#N)cn1 [compound 1388] | – | – | 36.2
O=C(O)c1cccc(-c2cc(Cl)ccc2OCCn2cnc3nnccc3c2=O)c1 [compound 18] | 50 to 1000 | 832 | –
N#Cc1cc2c(=O)n(CCOc3ccc(Cl)cc3-c3cccc(C(=O)O)c3)c(C(F)F)nc2cn1 [compound 1996] | – | – | 189
Cc1nc2cc(C(F)(F)F)c(N3CCN(CC(F)F)CC3)c(C#N)c2c(=O)n1CCOc1ccc(Cl)cc1-c1ccnc2c(C(=O)O)csc12 [compound 1239] | < 50 | – | 18.2
Cc1nc2cnc(N3CCC(N(C)C4CC(F)(F)C4)CC3)c(C#N)c2c(=O)n1CC#Cc1ccc(Cl)cc1-c1ccnc2c(C(=O)O)csc12 [compound 1592] | – | – | 20.3
N#Cc1cc2c(=O)n(CCOc3ccc(Cl)cc3-c3cc(C(=O)O)c(F)c(F)c3F)cnc2cn1 [compound 101] | > 1000 | 43800 | –
CC(=O)Nc1ccc(-c2cc(Cl)ccc2OCCn2cnc3cnc(C#N)cc3c2=O)cc1C(=O)O [compound 103] | 50 to 1000 | 747 | –
CCN(c1ncc2nc(C)n(CC#Cc3ccc(Cl)cc3-c3ccnc4c(C(=O)NS(=O)(=O)c5ccncc5)csc34)c(=O)c2c1C#N)C1CCN(C2COC2)CC1 [compound 1740] | – | – | 12.6
Cc1nc2cnc(C#CC3(N(C)C)CC3)c(C#N)c2c(=O)n1CCOc1ccc(Cl)cc1-c1ccnc2c(C(=O)O)csc12 [compound 1329] | – | – | 35.2
Cc1cc(-c2cc(Cl)ccc2OCCn2c(C)nc3cc(C(F)(F)F)c(-c4ncccc4C)c(C#N)c3c2=O)c2scc(C(=O)O)c2n1 [compound 1380] | – | – | 26.6
Cc1nc2cnc(N3CCN(CC(C)(C)F)CC3)c(C#N)c2c(=O)n1CCOc1ccc(Cl)cc1-c1ccnc2c(C(=O)NS(C)(=O)=O)csc12 [compound 1516] | – | – | 17
CCN(c1ncc2nc(C)n(CC#Cc3ccc(Cl)cc3-c3ccnc4c(C(=O)O)csc34)c(=O)c2c1C#N)C1CCN([C@H]2C[C@H](F)C2)CC1 [compound 1795] | – | – | 8.96
Cc1nc2c(C(F)(F)F)ccc(C#N)c2c(=O)n1CCOc1ccc(Cl)cc1-c1cccc(C(=O)O)c1 [compound 142] | 50 to 1000 | 152 | –
Cc1nc2cc(C(F)(F)F)cc(C#N)c2c(=O)n1CCOc1ccc(Cl)cc1-c1cccc2c1S(=O)(=O)C=C2C(=O)O [compound 327] | < 50 | 43.7 | –
COC(=O)c1csc2c(-c3cc(Cl)ccc3C#CCn3c(C)nc4cnc(N5CCN(CCOC(F)(F)F)CC5)c(C#N)c4c3=O)ccnc12 [compound 1405] | – | – | 631
